Our source for the IC50 and binding rate values is US12673041B2, “4-aminobut-2-enamide derivatives and salt thereof” (TAIHO PHARMACEUTICAL CO., LTD., priority 2019, dated 2026).

For assay [1], the target named is T1, GMPPNP-bound KRAS G12C protein and cRAF RAS-binding domain (cRAF-RBD) (Homo sapiens, UniProt P01116, G12C).
T1 construct: made in house; host or cells: E. coli
Kind of assay: Inhibitory activity on interaction between KRAS G12C and cRAF (Alpha technology). It is filed as biochemical. The note with it: GMPPNP-bound KRAS G12C incubated with compound at 25° C. for 1 hour, then cRAF-RBD, Alpha signal; read-out: IC50. The procedure: Interaction between recombinant K-Ras4B G12C mutant protein (amino acids 1-169, SEQ ID NO:2) and cRAF RAS-binding domain (cRAF-RBD, amino acids 50-132, Jena Biosciences GmbH) was measured using Alpha technology (PerkinElmer Inc.).
Recombinant KRAS G12C protein with an N-terminal His-tag was expressed in E. coli and purified by affinity chromatography. To prepare GTP-bound form and GDP-bound form of KRAS G12C protein, 50 μM KRAS G12C protein was incubated with 1 mM GMPPNP (Guanosine-5′-[(β,γ)-imido]triphosphate, Tetralithium salt) (Jena Bioscience GmbH) and 1 mM GDP, respectively, in a loading buffer (20 mM Tris-HCl (pH 7.5), 50 mM NaCl, 1 mM DTT and 2.5 mM EDTA) for 1 hour on ice. After the incubation, MgCl2 was added to a final concentration of 10 mM, followed by incubation at room temperature for 30 minutes. The mixture was allowed to pass through a NAP-5 column to remove free nucleotides and purified, and the resultant nucleotide-bound KRAS G12C protein was used for compound evaluation.
For the measurement of the inhibitory activity of compounds on interaction between KRAS G12C and cRAF-RBD, GMPPNP-bound KRAS G12C protein was incubated with various concentrations of compound in a reaction buffer (20 mM Tris-HCl (pH 7.5), 100 mM NaCl, 1 mM MgCl2, 1 mM TCEP, 0.1% Tween 20) at 25° C. for 1 hour. After the incubation, recombinant cRAF-RBD and Alpha detection reagents were added and incubated at room temperature for 1.5 hours for binding. Interaction 5 of KRAS G12C and cRAF-RBD was monitored by measuring Alpha signal. Inhibition % was calculated using the signal from the reaction without test compound (DMSO control) as 0% inhibition and the signal from the reaction using GDP-bound KRAS G12C in place of GMPPNP-bound KRAS G12C as 100% inhibition. IC50 values were calculated from dose titration curve using curve fitting by XLfit software (IDBS).

In assay [2] the target is Gppcp-bound recombinant K-Ras4B G12C mutant protein (amino acids 1-169, C51S/C80L/C118S) (Homo sapiens, UniProt P01116, C118S/C51S/C80L/G12C). Kind of assay: KRASG12C binding assay (LC-MS compound binding rate). As to conditions: test compound final concentration 0.5 μM, 25° C., 1 hour. The procedure:
As test compounds for the KRASG12C binding assay, the compounds obtained in the “Preparation of Compounds” section were used. Sample solutions each containing a test compound were prepared in the form of a 10 mM DMSO solution.
Gppcp-bound recombinant K-Ras4B G12C mutant protein (amino acids 1-169, C51S/C80L/C118S, SEQ ID NO:1) was diluted with a buffer (1×TBS, 0.1 mM TCEP, 0.25 mM MgCl2, 50 μM Gppcp) to prepare a 50 nM protein solution. K-Ras4B is the major splicing variant of K-Ras. Amino acid sequence of residues 1 to 150 including the compounds' binding region of K-Ras4B is exactly same as that of K-Ras4A, the other splicing variant (Oncotarget. 2016 Jul. 19; 7(29): 46717-46733). A sample solution containing 10 mM test compound was diluted ten-fold with DMSO to make a 1 mM sample solution, and then diluted twenty-fold with DMSO to make a 50 μM sample solution. 1 μL of a 50 μM sample solution was added to 100 μL of a 50 nM protein solution to adjust the final concentration of a test compound to be 0.5 μM in the mixture. The mixtures were stored in an incubator at 25° C. for 1 hour, and 10 μL of a 1×TBS solution containing 2% formic acid was added to stop the reaction, followed by LC-MS measurement. LC-MS measurement was performed using Xevo G2-S Q-Tof manufactured by Waters, and reverse-phase chromatography was performed with a desalting column. A mass spectrum of positive ions was obtained by electrospray. For a mass spectrum, a spectrum of polyvalent ions was collectively converted to a molecular weight by using OpenLynx software by the MaxEnt technique, and a compound binding rate was calculated from the ratio of the signal intensity of a peak that corresponds to the molecular weight of the protein to the signal intensity of a peak that corresponds to the molecular weight of the protein conjugated with the compound.
The binding assay of the test compounds was conducted at a final concentration of 0.5 μM. A binding rate of 80% or more is rated “A”, a binding rate of 60% or more and less than 80% is rated “B”, a binding rate of 40% or more and less than 60% is rated “C”, a binding rate of 20% or more and less than 40% is rated “D”, and a binding rate of less than 20% is rated “E”. N.D.=not determined. Binding rate % is the ratio of KRAS signal intensity at the molecular weight of one molecule adduct to the sum of all the KRAS signal intensity (unbound form and adducts) in mass spectrum.
Thus, binding rate 100% means that only the one molecule adduct was observed without any unbound KRAS.

As for `CO[C@H]1CC[C@H](NC/C=C/C(=O)Nc2ccc(C(=O)c3ccc4c(-c5ccccc5Cl)cccn34)cc2C#N)CC1` [Example 45, (E)-N-(4-(8-(2-chlorophenyl)indolizine-3-carbonyl)-2-cyanophenyl)-4-(((1r,4r)-4-methoxycyclohexyl)amino)but-2-enamide], in assay [1], the concentration for half-maximal inhibition (IC50) amounted to 320 nM. The binding rate result in assay [2] is “B (a binding rate of 60% or more and less than 80% is rated “B”)”.

Consider `CO[C@H]1CC[C@H](NC/C=C/C(=O)Nc2ccc(C(=O)c3ccc4c(-c5c(O)cccc5F)cccn34)cc2C#N)CC1` [Example 46, (E)-N-(2-cyano-4-(8-(2-fluoro-6-hydroxyphenyl)indolizine-3-carbonyl)phenyl)-4-(((1r,4r)-4-methoxycyclohexyl)amino)but-2-enamide], for which the IC50 in assay [1] was 170 nM. In assay [2], the binding rate result is “A (A binding rate of 80% or more is rated “A”)”.

As for `CO[C@H]1CC[C@H](NC/C=C/C(=O)Nc2ccc(C(=O)c3c[nH]c4c(-c5cc6ncn(C)c6cc5C(F)(F)F)cc(Cl)cc34)cc2C#N)CC1` [Example 47, (E)-N-(4-(5-chloro-7-(1-methyl-6-(trifluoromethyl)-1H-benzo[d]imidazol-5-yl)-1H-indole-3-carbonyl)-2-cyanophenyl)-4-(((1r,4r)-4-methoxycyclohexyl)amino)but-2-enamide], the IC50 in assay [1] was determined as 560 nM. For the same compound, the binding rate entry in assay [2] is recorded as “A (A binding rate of 80% or more is rated “A”)”.

Take `CO[C@H]1CC[C@H](NC/C=C/C(=O)NC2CCN(C(=O)c3ccc4c(-c5cc6ncn(C)c6cc5C)cccn34)CC2)CC1` [Example 48, (2E)-N-{1-[8-(1,6-dimethyl-1H-1,3-benzodiazol-5-yl)indolizine-3-carbonyl]piperidin-4-yl}-4-{[trans-4-methoxycyclohexyl]amino}but-2-enamide]: the IC50 in assay [1] was above 6700 nM. For the same compound, the binding rate result in assay [2] is “E (a binding rate of less than 20% is rated “E”)”.

Regarding `Cc1cc(C(=O)c2ccc3c(-c4cc5ncn(C)c5cc4C(F)(F)F)cccn23)cc(C#N)c1NC(=O)/C=C/CNC(C)(C)C` [Example 50, (2E)-4-(tert-Butylamino)-N-(2-cyano-6-methyl-4-{8-[1-methyl-6-(trifluoromethyl)-1H-1,3-benzodiazol-5-yl]indolizine-3-carbonyl}phenyl)but-2-enamide], the IC50 in assay [1] stood at 1200 nM. In addition, the binding rate result in assay [2] is on record as “E (a binding rate of less than 20% is rated “E”)”.

As to `Cn1cc2c(Cl)c(-c3cccn4c(C(=O)c5ccc(NC(=O)/C=C/CNC(C)(C)C)c(C#N)c5)ccc34)ccc2n1` [Example 52, (2E)-4-(tert-Butylamino)-N-{4-[8-(4-chloro-2-methyl-2H-indazol-5-yl)indolizine-3-carbonyl]-2-cyanophenyl}but-2-enamide], the IC50 in assay [1] was 260 nM. In assay [2], the binding rate result was “B (a binding rate of 60% or more and less than 80% is rated “B”)”.

Regarding `Cc1ccc2c(cnn2C)c1-c1cccn2c(C(=O)c3ccc(NC(=O)/C=C/CNC(C)(C)C)c(C#N)c3)ccc12` [Example 53, (2E)-4-(tert-Butylamino)-N-{2-cyano-4-[8-(1,5-dimethyl-1H-indazol-4-yl)indolizine-3-carbonyl]phenyl}but-2-enamide], the IC50 in assay [1] worked out at 150 nM. Moreover, the binding rate entry in assay [2] is recorded as “A (A binding rate of 80% or more is rated “A”)”.

With `Cc1cc2c(cnn2C)cc1-c1cccn2c(C(=O)c3ccc(NC(=O)/C=C/CNC(C)(C)C)c(C#N)c3)ccc12` [Example 54, (2E)-4-(tert-Butylamino)-N-{2-cyano-4-[8-(1,6-dimethyl-1H-indazol-5-yl)indolizine-3-carbonyl]phenyl}but-2-enamide], the half-maximal inhibitory concentration (IC50) in assay [1] turned out to be 180 nM. The binding rate result in assay [2] is listed as “A (A binding rate of 80% or more is rated “A”)”.

On to `CO[C@H]1CC[C@H](NC/C=C/C(=O)Nc2ccc(C(=O)c3ncc4c(-c5cc6ncn(C)c6cc5C)cccn34)cc2C#N)CC1` [Example 57, (E)-N-(2-cyano-4-(8-(1,6-dimethyl-1H-benzo[d]imidazol-5-yl)imidazo[1,5-a]pyridine-3-carbonyl)phenyl)-4-(((1r,4r)-4-methoxycyclohexyl)amino)but-2-enamide], for which the half-maximal inhibitory concentration (IC50) in assay [1] is 160 nM. For the same compound, the binding rate entry in assay [2] was “C (a binding rate of 40% or more and less than 60% is rated “C”)”.

As to `CO[C@H]1CC[C@H](NC/C=C/C(=O)Nc2ccc(C(=O)c3nn(C)c4c(-c5cc6ncn(C)c6cc5C)cccc34)cc2C#N)CC1` [Example 58, (E)-N-(2-cyano-4-(7-(1,6-dimethyl-1H-benzo[d]imidazol-5-yl)-1-methyl-1H-indazole-3-carbonyl)phenyl)-4-(((1r,4r)-4-methoxycyclohexyl)amino)but-2-enamide], the IC50 in assay [1] turned out to be 240 nM. Besides, in assay [2], the binding rate entry is “B (a binding rate of 60% or more and less than 80% is rated “B”)”.

Regarding `C=C(C)c1c(-c2cccn3c(C(=O)c4ccc(NC(=O)/C=C/CNC(C)(C)C)c(C#N)c4)ccc23)c(C)cc2c1ncn2C` [Example 61, (E)-4-(tert-butylamino)-N-(2-cyano-4-(8-(1,6-dimethyl-4-(prop-1-en-2-yl)-1H-benzo[d]imidazol-5-yl)indolizine-3-carbonyl)phenyl)but-2-enamide], the IC50 in assay [1] was found to be 230 nM. Moreover, the binding rate result in assay [2] was “A (A binding rate of 80% or more is rated “A”)”.

In the case of `CO[C@H]1CC[C@H](NC/C=C/C(=O)Nc2ccc(C(=O)c3cc(Cl)c4c(-c5cc6ncn(C)c6cc5C)cccn34)cc2C#N)CC1` [Example 65, (E)-N-(4-(1-chloro-8-(1,6-dimethyl-1H-benzo[d]imidazol-5-yl)indolizine-3-carbonyl)-2-cyanophenyl)-4-(((1r,4r)-4-methoxycyclohexyl)amino)but-2-enamide], the IC50 in assay [1] turned out to be 140 nM. Further, the binding rate entry in assay [2] is “B (a binding rate of 60% or more and less than 80% is rated “B”)”.

With `CO[C@H]1CC[C@H](NC/C=C/C(=O)Nc2ccc(C(=O)c3ccc4c(-c5c(C)cc6c(ncn6C)c5-c5cncnc5)cccn34)cc2C#N)CC1` [Example 69, (E)-N-(2-cyano-4-(8-(1,6-dimethyl-4-(pyrimidin-5-yl)-1H-benzo[d]imidazol-5-yl)indolizine-3-carbonyl)phenyl)-4-(((1r,4r)-4-methoxycyclohexyl)amino)but-2-enamide], the IC50 in assay [1] came out at 260 nM. For the same compound, the binding rate entry in assay [2] was “B (a binding rate of 60% or more and less than 80% is rated “B”)”.

Take `CO[C@H]1CC[C@H](NC/C=C/C(=O)Nc2ccc(C(=O)c3ccc4c(-c5ccc6nn(C)cc6c5Cl)cccn34)cc2C#N)CC1` [Example 71, (E)-N-(4-(8-(4-chloro-2-methyl-2H-indazol-5-yl)indolizine-3-carbonyl)-2-cyanophenyl)-4-(((1r,4r)-4-methoxycyclohexyl)amino)but-2-enamide]: in assay [1], the 50% inhibitory concentration (IC50) was found to be 140 nM. Besides, the binding rate entry in assay [2] is recorded as “A (A binding rate of 80% or more is rated “A”)”.

Usually IC50 stands for the midpoint of a concentration-inhibition curve.
